This note sets out measurements from patent US4746736A, “Carbapenem antibiotics” (priority 1986, dated 1988).

≈ marks a conversion by molar mass, not a printed value. Like-named read-outs stand apart in the source and are kept apart here.

The subject of one series is P. morganii A15153. Kind of series: In vitro MIC by tube dilution, P. morganii (M. morganii) A15153. Type of series: cell-based.
The subject of another series is P. rettgeri A22424. Kind of series: In vitro MIC by tube dilution, P. rettgeri A22424. Type of series: cell-based.
The test system of a further series is K. pneumoniae A-9664. Put plainly: In vitro MIC by tube dilution, K. pneumoniae A-9664. Format: cell-based.
Series [1] can be described thus: Blood levels in mice after intramuscular administration. The conditions noted are these: 20 mg/kg i.m., mice (compiled table).
Description: Compounds were solubilized in 0.1 M phosphate buffer pH 7.
Values are from a single test; 4 mice used per compound.
Compounds were solubilized in 0.1 M phosphate buffer, pH 7.
Values based on a single test; 4 mice per compound.
The next series has as its system S. aureus A-9537. Put plainly: In vitro MIC by tube dilution, S. aureus A-9537. Format: cell-based.
In another series the test system is P. aeruginosa A-9843A. Put plainly: In vitro MIC by tube dilution, P. aeruginosa A-9843A. Type of series: cell-based. The conditions noted are these: P. aeruginosa A-9843a.
The next series relates to P. vulgaris A21559. Put plainly: In vitro MIC by tube dilution, P. vulgaris A21559. Format: cell-based.
The next series deals with E. cloacae A-9656. Kind of series: In vitro MIC by tube dilution, E. cloacae A-9656. Type of series: cell-based.
Another series deals with S. pneumoniae A-9585. Kind of series: In vitro MIC by tube dilution, S. pneumoniae A-9585. Type of series: cell-based.
Series [2] concerns S. aureus A-9606 (Pen-res.). Put plainly: In vitro MIC by tube dilution, S. aureus A-9606 (Pen-res.). Type of series: cell-based. The settings on record: S. aureus A-9606 (Pen-res).
In another series the test system is P. aeruginosa A21213. Put plainly: In vitro MIC by tube dilution, P. aeruginosa A21213. Type of series: cell-based.
A further series deals with S. pyogenes A9604. Kind of series: In vitro MIC by tube dilution, S. pyogenes A9604. Type of series: cell-based.
A further series concerns K. pneumoniae A20468. Kind of series: In vitro MIC by tube dilution, K. pneumoniae A20468. Format: cell-based.
Another series has as its system S. marcescens A20019. Kind of series: In vitro MIC by tube dilution, S. marcescens A20019. Type of series: cell-based.
Another series relates to E. cloacae A-9659. Kind of series: In vitro MIC by tube dilution, E. cloacae A-9659. Format: cell-based.
The test system of the next series is P. mirabilis A-9900. Kind of series: In vitro MIC by tube dilution, P. mirabilis A-9900. Type of series: cell-based.
In another series the test system is E. coli A15119. Put plainly: In vitro MIC by tube dilution, E. coli A15119. Type of series: cell-based.
For another series, the system named is E. coli A20341-1. Kind of series: In vitro MIC by tube dilution, E. coli A20341-1. Type of series: cell-based.
For another series, the system named is S. faecalis A20688. Kind of series: In vitro MIC by tube dilution, S. faecalis A20688. Type of series: cell-based. The settings on record: S. faecalis A20688.
Another series relates to H. influenzae A-9833. Kind of series: In vitro MIC by tube dilution, H. influenzae A-9833. Type of series: cell-based. The conditions noted are these: Haemophilus influenzae, A9833.
The next series relates to H. influenzae A21518. Put plainly: In vitro MIC by tube dilution, H. influenzae A21518. The settings on record: Haemophilus influenzae. Type of series: cell-based.
The mark [3] stands for this setting: Morganella morganii, A15153, M. morganii A15153, read-out: MIC.
The mark [4] stands for this setting: Providencia rettgeri, A22424, P. rettgeri A22424, read-out: MIC.
[5] abbreviates: Klebsiella pneumoniae, A9664, read-out: MIC.
Setting [6] is: Staphylococcus aureus, A9537, S. aureus A-9537, no serum, read-out: MIC.
The mark [7] stands for this setting: Enterobacter cloacae, A9656, E. cloacae A-9656, read-out: MIC.
Where [8] appears, read: Staphylococcus aureus, read-out: MIC.
The mark [9] stands for this setting: Serratia marcescens, read-out: MIC.
[10] abbreviates: Proteus mirabilis, A9900, P. mirabilis A-9900, read-out: MIC.
The mark [11] stands for this setting: Streptococcus pneumoniae, A9585, S. pneumoniae A-9585, read-out: MIC.
Setting [12] is: Streptococcus pyogenes, A9604, S. pyogenes A-9604, read-out: MIC.

As to `C[C@@H](O)C1C(=O)N2C(C(=O)[O-])=C(SCc3cn(C)n[n+]3C)CC12` (stereo partly drawn) [Example 15 "C", 3-[4-(N,N-dimethyl-1,2,3-triazolium)methylthio]-6α-[1-(R)-hydroxyethyl]-7-oxo-1-azabicyclo(3.2.0)hept-2-ene-2-carboxylate], the MIC in the series with P. morganii A15153 (M. morganii A15153) came out at 0.25 µg/mL (≈ 0.739 µM); with P. rettgeri A22424 (P. rettgeri A22424), 0.25 µg/mL (≈ 0.739 µM); with K. pneumoniae A-9664, 0.06 µg/mL (≈ 0.177 µM); in the series on S. aureus A-9537 (S. aureus A-9537 +50% serum), 0.06 µg/mL (≈ 0.177 µM); against S. aureus A-9537 (S. aureus A-9537, no serum), 0.016 µg/mL (≈ 0.0473 µM); against P. aeruginosa A-9843A, 8 µg/mL (≈ 23.6 µM). Besides, the MIC against P. vulgaris A21559 (P. vulgaris A21559) is 0.06 µg/mL (≈ 0.177 µM); in the series on E. cloacae A-9656 (E. cloacae A-9656) it was 0.13 µg/mL (≈ 0.384 µM); in the series with S. pneumoniae A-9585 (S. pneumoniae A-9585), 0.0005 µg/mL (≈ 0.00148 µM); in series [2], 0.03 µg/mL (≈ 0.0887 µM); against P. aeruginosa A21213 (P. aeruginosa A21213), 0.5 µg/mL (≈ 1.48 µM); with S. pyogenes A9604 (S. pyogenes A-9604), 0.0003 µg/mL (≈ 0.000887 µM). Moreover, the MIC with K. pneumoniae A20468 (K. pneumoniae A20468) worked out at 0.13 µg/mL (≈ 0.384 µM); with S. marcescens A20019, 0.13 µg/mL (≈ 0.384 µM); in the series on E. cloacae A-9659 (E. cloacae A-9659), 0.13 µg/mL (≈ 0.384 µM); in the series with P. mirabilis A-9900 (P. mirabilis A-9900), 0.06 µg/mL (≈ 0.177 µM); in the series with E. coli A15119 (E. coli A15119), 0.06 µg/mL (≈ 0.177 µM); against E. coli A20341-1 it was 0.03 µg/mL (≈ 0.0887 µM). For the same molecule, in the series with S. faecalis A20688, the MIC is 0.5 µg/mL (≈ 1.48 µM). In [1], this molecule showed an AUC of 7300 ng·h/mL. In addition, the T1/2 in [1] worked out at 10 min.
Take `C[C@@H](O)[C@H]1C(=O)N2C(C(=O)[O-])=C(SCc3cn(CC(=O)O)n[n+]3C)C[C@H]12` [Example 18, Potassium 3-[4-(1-carboxylatomethyl-3-methyl-1,2,3-triazolium)-methanethio]-6α-[1-(R)-hydroxyethyl]-7-oxo-1-azabicyclo[3.2.0]hept-2-ene-2-carboxylate]: the MIC was 32 µg/mL in the series with P. morganii A15153 (setting [3]); 32 µg/mL with P. rettgeri A22424 (setting [4]); 32 µg/mL with K. pneumoniae A-9664 (setting [5]); 32 µg/mL in the series with S. aureus A-9537 (setting [6]); 32 µg/mL in the series with P. vulgaris A21559 (Proteus vulgaris, A21559, P. vulgaris A21559, read-out: MIC); 125 µg/mL in the series on E. cloacae A-9656 (setting [7]). Also, the MIC is above 125 µg/mL in series [2] (setting [8]), 32 µg/mL in the series with S. marcescens A20019 (setting [9]) and 32 µg/mL with P. mirabilis A-9900 (setting [10]).
In the case of `C[C@@H](O)[C@H]1C(=O)N2C(C(=O)[O-])=C(SCc3scc[n+]3C)C[C@H]12` [Example 11, 3-[2-(N-Methylthiazolium)methylthio]-6α-[1-(R)-hydroxyethyl]-7-oxo-1-azabicyclo(3.2.0)hept-2-ene-2-carboxylate], the MIC in the series with P. morganii A15153 (setting [3]) stood at 0.06 µg/mL (≈ 0.176 µM); in the series with P. rettgeri A22424 (setting [4]), 0.13 µg/mL (≈ 0.382 µM); in the series with K. pneumoniae A-9664 (setting [5]) it was 0.03 µg/mL (≈ 0.0881 µM); in the series on S. aureus A-9537 (Staphylococcus aureus, A9537, S. aureus A-9537 +50% serum, read-out: MIC) it was 0.016 µg/mL (≈ 0.047 µM); in the series on S. aureus A-9537 (setting [6]) it was 0.004 µg/mL (≈ 0.0117 µM); in the series on E. cloacae A-9656 (setting [7]) it was 0.13 µg/mL (≈ 0.382 µM). The MIC in the series with S. pneumoniae A-9585 (setting [11]) came to 0.002 µg/mL (≈ 0.00587 µM); in series [2] (setting [8]), 0.016 µg/mL (≈ 0.047 µM); in the series on P. aeruginosa A21213 (Pseudomonas aeruginosa, A21213, P. aeruginosa A21213, read-out: MIC), 0.13 µg/mL (≈ 0.382 µM); in the series on S. pyogenes A9604 (setting [12]), 0.002 µg/mL (≈ 0.00587 µM); in the series on K. pneumoniae A20468 (Klebsiella pneumoniae, A20468, K. pneumoniae A20468, read-out: MIC), 0.13 µg/mL (≈ 0.382 µM); in the series on S. marcescens A20019 (setting [9]) it was 0.06 µg/mL (≈ 0.176 µM). Further, the MIC came to 0.06 µg/mL (≈ 0.176 µM) in the series on E. cloacae A-9659 (Enterobacter cloacae, A9659, E. cloacae A-9659, read-out: MIC); 0.03 µg/mL (≈ 0.0881 µM) in the series with P. mirabilis A-9900 (setting [10]); 0.016 µg/mL (≈ 0.047 µM) with E. coli A15119 (Escherichia coli, A15119, E. coli A15119, read-out: MIC); 0.03 µg/mL (≈ 0.0881 µM) in the series on E. coli A20341-1 (Escherichia coli, A203411, read-out: MIC).
Turning to `CCC[n+]1ccc(CSC2=C(C(=O)[O-])N3C(=O)[C@H]([C@@H](C)O)[C@H]3C2)cc1` [Example 6, 3-(1-Propylpyridine-4-yl-methanethio)-6α-[1-(R)-hydroethyl]-7-oxo-1-azabicyclo(3.2.0)hept-2-ene-2-carboxylate], the MIC was 0.03 µg/mL (≈ 0.0828 µM) in the series with S. aureus A-9537 (setting [6]); 8 µg/mL (≈ 22.1 µM) in the series with P. aeruginosa A-9843A (Pseudomonas aeruginosa, A9843A, read-out: MIC); above 32 µg/mL with H. influenzae A-9833; 0.004 µg/mL (≈ 0.011 µM) in the series on S. pneumoniae A-9585 (setting [11]); 0.03 µg/mL (≈ 0.0828 µM) in series [2] (setting [8]); 0.004 µg/mL (≈ 0.011 µM) with S. pyogenes A9604 (setting [12]). Moreover, the MIC with H. influenzae A21518 was above 32 µg/mL.

For orientation: AUC means concentration integrated over time. A low value points to low exposure.
